Legend:
Melatonin receptor [1] = target: T1, Melatonin receptor (Gallus gallus, UniProt P49288+P51050+P49285); experiment: Binding affinity towards melatonin receptor in chicken brain.
Melatonin receptor [2] = target: T1, Melatonin receptor; experiment: Binding affinity towards melatonin receptor in Chicken brain Experiment 1
Melatonin receptor [3] = target: T1, Melatonin receptor; experiment: Binding affinity towards melatonin receptor in Chicken brain Experiment 2

| SMILES | Ki (Melatonin receptor [1]) [nM] | further results |
| --- | --- | --- |
| CCC(=O)NCCCc1cccc(OC)c1 | 5.6 | – |
| CCCCC(=O)NCCCCc1ccccc1OC | 9190 | – |
| CCCC(=O)NCCc1ccc(OC)cc1 | 17900 | – |
| CCC(=O)NCCCCc1ccc(OC)cc1 | 1400 | – |
| CCCC(=O)NCCc1ccccc1OC | 69 | – |
| CCCCC(=O)NCCCCc1cccc(OC)c1 | 9670 | – |
| CCC(=O)NCCCc1ccccc1OC | 374 | – |
| CCC(=O)NCCCCc1cccc(OC)c1 | 119 | – |
| CCC(=O)NCc1cccc(OC)c1 | 22000 | – |
| CCCCC(=O)NCCc1ccc(OC)cc1 | 70800 | – |
| CCC(=O)NCCc1c[nH]c2ccc(OC)cc12 | 0.19 | – |
| COc1ccc(CCCNC(C)=O)cc1 | 14000 | – |
| CCCC(=O)NCCc1ccc(OC)c(OC)c1 | 59 | – |
| CCCC(=O)NCCCc1cccc(F)c1 | 434 | – |
| CCCC(=O)NCCCCc1ccc(OC)cc1 | 822 | – |
| COc1ccc(CCNC(C)=O)cc1OC | 870 | – |
| COc1cccc(CCCNC(C)=O)c1 | 63 | – |
| CCCC(=O)NCCCCc1ccccc1OC | 116 | – |
| CCCC(=O)NCc1cccc(OC)c1 | 13000 | – |
| COc1ccc(CCCCNC(C)=O)cc1 | 7300 | – |
| CCCC(=O)NCCCc1cccc(Br)c1 | 354 | – |
| CCC(=O)NCCc1ccccc1OC | 135 | – |
| CCCC(=O)NCCCc1ccccc1OC | 442 | – |
| COc1ccccc1CCCNC(C)=O | 1430 | – |
| CCCCC(=O)NCCc1cccc(OC)c1 | 741 | – |

| SMILES | Ki (Melatonin receptor [1]) [nM] | further results |
| --- | --- | --- |
| CCCC(=O)NCCc1cccc(OC)c1 | 40 | – |
| CCC(=O)NCCCc1cccc(F)c1 | 740 | – |
| CCC(=O)NCCCc1ccc(OC)cc1 | 2900 | – |
| COc1ccccc1CCNC(C)=O | 573 | – |
| COc1cccc(CNC(C)=O)c1 | 57000 | – |
| CCC(=O)NCCCc1cccc(Br)c1 | 318 | – |
| CC(=O)NCCCc1cccc(Br)c1 | 852 | – |
| CCCCC(=O)NCCc1ccccc1OC | 16000 | – |
| CCC(=O)NCCc1ccc(OC)c(OC)c1 | 130 | – |
| CCC(=O)NCCc1ccc(OC)cc1 | 19200 | – |
| COc1ccc(CCNC(C)=O)cc1 | – | Ki (Melatonin receptor [2]): > 100000 nM; Ki (Melatonin receptor [3]): > 1000 nM |
| COc1cccc(CCNC(C)=O)c1 | – | Ki (Melatonin receptor [2]): 958 nM |
| CC(=O)NCCCc1cccc(F)c1 | 1920 | – |
| CCCCC(=O)NCCCCc1ccc(OC)cc1 | 7000 | – |
| COc1ccc2c(c1)c1c(n2C)CCCC1CNC(C)=O (stereo unspecified) | 0.97 | – |
| CCCC(=O)NCCCCc1cccc(OC)c1 | 208 | – |
| CCCC(=O)NCCCc1cccc(OC)c1 | 5.5 | – |
| CCC(=O)NCCc1cccc(OC)c1 | 62 | – |
| CCC(=O)NCCCCc1ccccc1OC | 339 | – |
| CC(=O)NCCCc1cccc(Cl)c1 | 636 | – |
| CCCCC(=O)NCCCc1cccc(Cl)c1 | 15100 | – |
| CCCC(=O)NCCCc1ccc(OC)cc1 | 860 | – |
| CCCCC(=O)NCCCc1ccccc1OC | > 100000 | – |
| COc1ccc(Br)cc1CCN | 8 | – |
| CCCC(=O)NCCCc1cccc(Cl)c1 | 113 | – |

From ChEMBL document CHEMBL1129757 (J Med Chem, 1996)
